Results taken from paper PMC3427316 (PLoS ONE, 2012).
pKi: −log10 of the molar value.

Legend:
[1] = biological target: NA of D0 isolate A/Paris/7976/2010 (223I 100%, 275H 100%) (Influenza A virus, UniProt V9TJZ0); format: biochemical, influenza A(H1N1)pdm09 virus; conditions: read-out: Ki +/− SD
H1N1pdm09 virus = conditions: human, in vivo

Compound	pKi [1]	impact on viral shedding (H1N1pdm09 virus)	symptoms (H1N1pdm09 virus)
CCC(CC)O[C@@H]1C=C(C(=O)O)C[C@H](N)[C@H]1NC(C)=O [OC, oseltamivir carboxylate]	9.55	–	–
CC(=O)N[C@H]1[C@H]([C@H](O)[C@H](O)CO)OC(C(=O)O)=C[C@@H]1N=C(N)N [ZAN, zanamivir]	–	no impact	did not improve
